One compound from PMC9562282, “Reaction of Thiosulfate Dehydrogenase with a Substrate Mimic Induces Dissociation of the Cysteine Heme Ligand Giving Insights into the Mechanism of Oxidative Catalysis” (Journal of the American Chemical Society, 2022) can be followed below.

The assay has as its target T1, CjTsdA (Campylobacter jejuni thiosulfate dehydrogenase) (Campylobacter jejuni, UniProt A0A5Y8VWW6).
T1 construct: diheme c-type cytochrome (two covalent c hemes), mass 37,202 Da by LCMS with unmodified Cys138; host and tags only in supplement
Description: LCMS of intact protein (supported by absorbance and MCD spectroscopy). It is filed as binding. Particulars: covalent; cysteinyl-138 sulfonate adduct; 1.5 mM sulfite, anaerobic 50 mM HEPES, 50 mM NaCl, pH 7, 20 °C; ferricyanide as oxidant.

Turning to `O=S(O)O` [sulfite], the “LCMS of intact protein (supported by absorbance and MCD spectroscopy)” value was “sulfite is shown to bind to the active site of CjTsdA”.
